Results as given in ChEMBL document CHEMBL4130473, “Design, synthesis and biological evaluation of 4,7,12,12a-tetrahydro-5H-thieno[3',2':3,4]pyrido[1,2-b]isoquinolines as novel adenosine 5'-monophosphate-activated protein kinase (AMPK) indirect activators for the treatment of type 2 diabetes” (Eur J Med Chem, 2017).
Active and inactive are the calls of the source. The rule behind the calls is not given here.

What was measured:
L6 [1] = assay: Stimulation of glucose consumption in rat L6 cells at 20 uM incubated for 12 hrs by glucose assay reagent based glucose oxidase method relative to untreated control; format: functional
Hepatocyte [2] = assay: Inhibition of glucose production in Sprague-Dawley rat primary hepatocytes grown under gluconeogenic medium assessed as glucose production level at 5 uM incubated for 6 hrs by glucose assay reagent based glucose oxidase method (reference value: 100%); format: functional; design: scale not given: the % may be the effect or the level left
[3] = Tmax in C57BL/6J mouse at 10 mg/kg, po; format: ADME, organism-based; conditions: in vivo
Mus musculus [4] = assay: Antidiabetic activity in db/db mouse assessed as reduction in fasting blood glucose level at 120 mg/kg/day dosed via gavage for 4 weeks measured during 2 to 4 weeks; format: functional, organism-based
[5] = Oral bioavailability in Sprague-Dawley rat at 10 mg/kg; format: ADME, organism-based; conditions: in vivo
[6] = Tmax in Sprague-Dawley rat at 2 mg/kg, iv; format: ADME, organism-based; conditions: in vivo
[7] = AUCt in C57BL/6J mouse at 10 mg/kg, po; format: ADME, organism-based; conditions: in vivo
[8] = Cmax in Sprague-Dawley rat at 10 mg/kg, po; format: ADME, organism-based; design: dose 10 mg/kg, route oral; conditions: in vivo
[9] = AUC in C57BL/6J mouse at 10 mg/kg, po; format: ADME, organism-based; conditions: in vivo
Hepatocyte [10] = assay: Potency index, ratio of berberine potency to compound potency for inhibition of glucose production in Sprague-Dawley rat primary hepatocytes grown under gluconeogenic medium aincubated for 6 hrs by glucose assay reagent based glucose oxidase method; format: functional
[11] = AUCt in Sprague-Dawley rat at 10 mg/kg, po; format: ADME, organism-based; conditions: in vivo
Hepatocyte [12] = assay: Inhibition of glucose production in Sprague-Dawley rat primary hepatocytes grown under gluconeogenic medium incubated for 6 hrs by glucose assay reagent based glucose oxidase method (reference value: 100%); format: functional, cell-based
L6 [13] = assay: Activation of AMPKalpha in rat L6 cells assessed as increase in ACC phosphorylation incubated for 1 hrs by Western blot method; format: cell-based
[14] = Cmax in Sprague-Dawley rat at 2 mg/kg, iv; format: ADME, organism-based; design: dose 2 mg/kg, route intravenous; conditions: in vivo
[15] = Cmax in C57BL/6J mouse at 10 mg/kg, po; format: ADME, organism-based; design: dose 10 mg/kg, route oral; conditions: in vivo
[16] = target: AMPK alpha2/beta1/gamma1 (Homo sapiens) (UniProt P54646+P54619+Q9Y478); assay: Activation of human recombinant AMPKalpha2beta1gamma1 expressed in Escherichia coli at 20 uM incubated for 1 hr using serine/threonine kinase substrate
Chain of AMPK alpha2/beta1/gamma1 (Homo sapiens) (P54619 whole entry partner): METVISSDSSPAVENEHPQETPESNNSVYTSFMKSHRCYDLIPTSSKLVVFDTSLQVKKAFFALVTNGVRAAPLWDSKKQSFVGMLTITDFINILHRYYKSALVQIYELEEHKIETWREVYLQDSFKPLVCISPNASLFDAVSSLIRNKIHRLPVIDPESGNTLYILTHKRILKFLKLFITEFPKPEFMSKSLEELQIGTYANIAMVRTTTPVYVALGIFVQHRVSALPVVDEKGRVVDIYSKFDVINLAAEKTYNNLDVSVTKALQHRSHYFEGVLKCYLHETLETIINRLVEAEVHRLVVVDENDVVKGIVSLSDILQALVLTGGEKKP
Chain of AMPK alpha2/beta1/gamma1 (Homo sapiens) (P54646 whole entry): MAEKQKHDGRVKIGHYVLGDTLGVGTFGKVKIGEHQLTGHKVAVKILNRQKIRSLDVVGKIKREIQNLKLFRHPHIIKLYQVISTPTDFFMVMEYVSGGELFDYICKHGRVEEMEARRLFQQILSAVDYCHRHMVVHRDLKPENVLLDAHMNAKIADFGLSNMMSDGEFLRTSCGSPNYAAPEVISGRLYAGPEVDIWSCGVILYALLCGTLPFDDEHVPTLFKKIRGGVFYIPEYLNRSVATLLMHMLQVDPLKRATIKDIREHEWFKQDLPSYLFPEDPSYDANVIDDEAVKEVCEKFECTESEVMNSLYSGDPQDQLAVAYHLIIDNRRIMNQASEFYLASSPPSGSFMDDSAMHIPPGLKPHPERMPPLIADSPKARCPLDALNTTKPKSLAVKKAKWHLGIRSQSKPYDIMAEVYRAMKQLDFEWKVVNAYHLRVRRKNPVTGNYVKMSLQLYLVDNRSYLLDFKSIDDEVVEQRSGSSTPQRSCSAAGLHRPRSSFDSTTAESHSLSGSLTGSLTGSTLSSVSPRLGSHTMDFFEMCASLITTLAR
Chain of AMPK alpha2/beta1/gamma1 (Homo sapiens) (Q9Y478 2-270 partner limits assumed): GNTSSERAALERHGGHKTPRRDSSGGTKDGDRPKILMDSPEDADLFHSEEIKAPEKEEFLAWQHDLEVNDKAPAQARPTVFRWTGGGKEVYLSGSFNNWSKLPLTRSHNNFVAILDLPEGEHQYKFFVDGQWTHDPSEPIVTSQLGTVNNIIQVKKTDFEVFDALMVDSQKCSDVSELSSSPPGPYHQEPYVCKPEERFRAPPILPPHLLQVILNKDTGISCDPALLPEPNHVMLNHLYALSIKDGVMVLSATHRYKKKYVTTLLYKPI

[17] = Inhibition of oxygen consumption rate in isolated mitochondria from rat L6 cells assessed as oxygen consumption level at 2.5 uM (reference value: 100 +/- 1.9%); format: functional; design: scale not given: the % may be the effect or the level left
[18] = target: AMP-activated protein kinase (AMPK) alpha-1/beta-1/gamma-1 (Homo sapiens) (UniProt P54619+Q9Y478+Q13131); assay: Activation of human recombinant AMPKalpha1beta1gamma1 expressed in Escherichia coli at 20 uM incubated for 1 hr using serine/threonine kinase substrate
Chain of AMP-activated protein kinase (AMPK) alpha-1/beta-1/gamma-1 (Homo sapiens) (P54619 whole entry): as the sequence (P54619 whole entry partner) above
Chain of AMP-activated protein kinase (AMPK) alpha-1/beta-1/gamma-1 (Homo sapiens) (Q13131 whole entry partner): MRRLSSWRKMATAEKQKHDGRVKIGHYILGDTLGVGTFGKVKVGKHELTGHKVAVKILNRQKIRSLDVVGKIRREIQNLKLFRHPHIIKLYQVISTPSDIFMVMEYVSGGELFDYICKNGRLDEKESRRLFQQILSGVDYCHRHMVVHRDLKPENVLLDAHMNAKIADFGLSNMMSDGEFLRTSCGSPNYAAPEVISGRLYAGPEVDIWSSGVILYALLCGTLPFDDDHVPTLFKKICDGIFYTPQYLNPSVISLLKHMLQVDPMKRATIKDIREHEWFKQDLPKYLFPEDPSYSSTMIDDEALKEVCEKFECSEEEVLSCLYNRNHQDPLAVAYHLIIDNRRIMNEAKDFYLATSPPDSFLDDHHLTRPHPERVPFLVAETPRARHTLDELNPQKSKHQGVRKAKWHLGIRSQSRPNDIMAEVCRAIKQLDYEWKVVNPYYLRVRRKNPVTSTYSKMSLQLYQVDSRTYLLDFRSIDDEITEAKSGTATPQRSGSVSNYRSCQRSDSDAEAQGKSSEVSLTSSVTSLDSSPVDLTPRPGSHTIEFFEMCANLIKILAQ
Chain of AMP-activated protein kinase (AMPK) alpha-1/beta-1/gamma-1 (Homo sapiens) (Q9Y478 2-270 partner limits assumed): as the sequence (Q9Y478 2-270 partner limits assumed) above

[19] = target: AMP-activated protein kinase alpha-1/beta-2/gamma-3 (Homo sapiens) (UniProt O43741+Q13131+Q9UGI9); assay: Activation of human recombinant AMPKalpha1beta2gamma3 expressed in Escherichia coli at 20 uM incubated for 1 hr using serine/threonine kinase substrate
[20] = target: AMP-activated protein kinase alpha-2/beta-2/gamma-2 (Homo sapiens) (UniProt P54646+O43741+Q9UGJ0); assay: Activation of human recombinant AMPKalpha2beta2gamma2 expressed in Escherichia coli at 20 uM incubated for 1 hr using serine/threonine kinase substrate
[21] = target: AMPK alpha2/beta2/gamma1 (Homo sapiens) (UniProt P54646+O43741+P54619); assay: Activation of human recombinant AMPKalpha2beta2gamma1 expressed in Escherichia coli at 20 uM incubated for 1 hr using serine/threonine kinase substrate
Mus musculus [22] = assay: Antidiabetic activity in db/db mouse assessed as effect on glucose tolerance capacity by measuring blood glucose AUC level at 120 mg/kg/day dosed via gavage for 4 weeks by OGTT; format: functional, organism-based
[23] = AUCt in Sprague-Dawley rat at 2 mg/kg, iv; format: ADME, organism-based; conditions: in vivo
[24] = Inhibition of oxygen consumption rate in isolated mitochondria from rat L6 cells assessed as oxygen consumption level at 5 uM (reference value: 100 +/- 1.9%); format: functional; design: scale not given: the % may be the effect or the level left
L6 [25] = assay: Inhibition of mitochondrial membranes potential in rat L6 cells assessed as mitochondrial membranes potential level at 20 uM incubated for 40 mins by JC1 dye staining based fluorescence assay (reference value: 100 +/- 2.8%); format: functional; design: scale not given: the % may be the effect or the level left
[26] = Tmax in Sprague-Dawley rat at 10 mg/kg, po; format: ADME, organism-based; conditions: in vivo
[27] = Inhibition of oxygen consumption rate in isolated mitochondria from rat L6 cells assessed as oxygen consumption level at 1.2 uM (reference value: 100 +/- 1.9%); format: functional; design: scale not given: the % may be the effect or the level left
[28] = Half life in Sprague-Dawley rat at 2 mg/kg, iv; format: ADME, organism-based; conditions: in vivo
L6 [29] = assay: Inhibition of oxygen consumption rate in isolated mitochondria from rat L6 cells; format: functional
[30] = MRT in C57BL/6J mouse at 10 mg/kg, po; format: ADME, organism-based; conditions: in vivo
Hepatocyte [31] = assay: Inhibition of glucose production in Sprague-Dawley rat primary hepatocytes grown under gluconeogenic medium assessed as glucose production level at 20 uM incubated for 6 hrs by glucose assay reagent based glucose oxidase method (reference value: 100%); format: functional; design: scale not given: the % may be the effect or the level left
L6 [32] = assay: Activation of AMPKalpha in rat L6 cells assessed as increase in AMPKalpha Thr172 phosphorylation incubated for 1 hrs by Western blot method; format: cell-based
[33] = MRT in Sprague-Dawley rat at 10 mg/kg, po; format: ADME, organism-based; conditions: in vivo
[34] = Half life in Sprague-Dawley rat at 10 mg/kg, po; format: ADME, organism-based; conditions: in vivo
[35] = target: AMPK alpha1/beta2/gamma1 (Homo sapiens) (UniProt O43741+P54619+Q13131); assay: Activation of human recombinant AMPKalpha1beta2gamma1 expressed in Escherichia coli at 20 uM incubated for 1 hr using serine/threonine kinase substrate
Chain of AMPK alpha1/beta2/gamma1 (Homo sapiens) (O43741 whole entry, looked up): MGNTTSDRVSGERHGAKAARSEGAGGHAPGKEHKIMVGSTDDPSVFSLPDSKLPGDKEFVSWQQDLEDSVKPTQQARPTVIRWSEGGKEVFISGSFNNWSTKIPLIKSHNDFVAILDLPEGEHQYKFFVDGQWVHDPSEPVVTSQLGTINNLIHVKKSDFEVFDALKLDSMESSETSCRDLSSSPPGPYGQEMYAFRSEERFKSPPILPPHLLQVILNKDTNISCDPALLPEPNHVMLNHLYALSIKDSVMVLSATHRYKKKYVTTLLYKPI
Chain of AMPK alpha1/beta2/gamma1 (Homo sapiens) (P54619 whole entry, looked up): as the sequence (P54619 whole entry partner) above
Chain of AMPK alpha1/beta2/gamma1 (Homo sapiens) (Q13131 whole entry, looked up): as the sequence (Q13131 whole entry partner) above

L6 [36] = assay: Inhibition of oxygen consumption rate in rat L6 cells assessed as oxygen consumption level at 10 uM (reference value: 100 +/- 1.6%); format: functional; design: scale not given: the % may be the effect or the level left
[37] = target: AMPK alpha1/beta1/gamma2 (Homo sapiens) (UniProt Q9UGJ0+Q9Y478+Q13131); assay: Activation of human recombinant AMPKalpha1beta1gamma2 expressed in Escherichia coli at 20 uM incubated for 1 hr using serine/threonine kinase substrate
[38] = Inhibition of oxygen consumption rate in isolated mitochondria from rat L6 cells assessed as oxygen consumption level at 10 uM (reference value: 100 +/- 1.9%); format: functional; design: scale not given: the % may be the effect or the level left
L6 [39] = assay: Inhibition of oxygen consumption rate in rat L6 cells; format: functional, cell-based
[40] = AUC in Sprague-Dawley rat at 2 mg/kg, iv; format: ADME, organism-based; conditions: in vivo
[41] = MRT in Sprague-Dawley rat at 2 mg/kg, iv; format: ADME, organism-based; conditions: in vivo
Rattus norvegicus = assay: Clearance in Sprague-Dawley rat at 2 mg/kg, iv; format: ADME, organism-based; conditions: in vivo
[42] = target: Voltage-gated inwardly rectifying potassium channel KCNH2 (Homo sapiens, UniProt Q12809); assay: Inhibition of human ERG by patch clamp assay
Chain of Voltage-gated inwardly rectifying potassium channel KCNH2 (Q12809 whole entry): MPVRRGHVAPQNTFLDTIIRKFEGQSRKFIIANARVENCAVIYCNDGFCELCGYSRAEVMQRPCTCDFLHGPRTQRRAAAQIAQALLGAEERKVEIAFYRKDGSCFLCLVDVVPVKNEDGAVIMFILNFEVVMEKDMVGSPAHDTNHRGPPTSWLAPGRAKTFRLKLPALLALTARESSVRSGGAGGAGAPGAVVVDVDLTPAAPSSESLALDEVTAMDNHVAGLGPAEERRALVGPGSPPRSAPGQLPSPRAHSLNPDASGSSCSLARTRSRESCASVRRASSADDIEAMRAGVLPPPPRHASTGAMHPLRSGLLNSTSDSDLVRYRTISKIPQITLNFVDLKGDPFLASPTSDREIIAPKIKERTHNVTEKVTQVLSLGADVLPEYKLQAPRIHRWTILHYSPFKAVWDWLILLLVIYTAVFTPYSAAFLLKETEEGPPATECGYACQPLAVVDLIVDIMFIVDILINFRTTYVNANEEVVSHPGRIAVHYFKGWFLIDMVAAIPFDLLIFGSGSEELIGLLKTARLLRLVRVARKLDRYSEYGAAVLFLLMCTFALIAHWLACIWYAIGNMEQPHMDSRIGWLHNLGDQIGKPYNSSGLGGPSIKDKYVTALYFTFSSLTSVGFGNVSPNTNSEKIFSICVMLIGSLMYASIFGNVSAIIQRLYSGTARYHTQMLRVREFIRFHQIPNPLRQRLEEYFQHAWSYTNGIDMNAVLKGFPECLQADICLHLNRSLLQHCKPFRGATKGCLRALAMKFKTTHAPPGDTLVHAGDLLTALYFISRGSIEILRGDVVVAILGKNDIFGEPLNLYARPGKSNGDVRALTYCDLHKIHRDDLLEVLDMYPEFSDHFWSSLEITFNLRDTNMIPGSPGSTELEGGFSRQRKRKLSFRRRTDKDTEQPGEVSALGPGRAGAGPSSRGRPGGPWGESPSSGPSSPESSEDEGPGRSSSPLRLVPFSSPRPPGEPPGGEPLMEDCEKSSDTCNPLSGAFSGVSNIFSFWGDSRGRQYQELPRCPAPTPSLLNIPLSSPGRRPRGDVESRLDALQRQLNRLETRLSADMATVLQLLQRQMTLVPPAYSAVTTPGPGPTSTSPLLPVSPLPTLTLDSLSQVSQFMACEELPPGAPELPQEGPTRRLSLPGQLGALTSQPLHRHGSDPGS

L6 [43] = assay: Inhibition of oxygen consumption rate in rat L6 cells assessed as oxygen consumption level at 20 uM (reference value: 100 +/- 1.6%); format: functional; design: scale not given: the % may be the effect or the level left
[44] = target: AMP-activated protein kinase alpha-2/beta-1/gamma-3 (Homo sapiens) (UniProt P54646+Q9Y478+Q9UGI9); assay: Activation of human recombinant AMPKalpha2beta1gamma3 expressed in Escherichia coli at 20 uM incubated for 1 hr using serine/threonine kinase substrate
[45] = AUC in Sprague-Dawley rat at 10 mg/kg, po; format: ADME, organism-based; conditions: in vivo
Hepatocyte [46] = assay: Inhibition of glucose production in Sprague-Dawley rat primary hepatocytes grown under gluconeogenic medium assessed as glucose production level at 10 uM incubated for 6 hrs by glucose assay reagent based glucose oxidase method (reference value: 100%); format: functional; design: scale not given: the % may be the effect or the level left

CCc1cc2c(s1)CCN1Cc3c(OC)ccc(OC)c3CC21 (configuration not stated)
Activity (L6 [1]): 228.3%
Activity (Hepatocyte [2]): 25.7%
Tmax [3]: 0.25 h
Activity (Mus musculus [4]): Active
bioavailability [5]: 45.4%
Tmax [6]: 0.25 h
AUC(0-t) [7]: 188 ng·h/mL
Cmax [8]: 162 ng/mL
AUC [9]: 244 ng·h/mL
Ratio (Hepatocyte [10]): 1.7
AUC(0-t) [11]: 825 ng·h/mL
inhibition (Hepatocyte [12]): Dose-dependent effect
Activity (L6 [13]): Dose-dependent effect
Cmax [14]: 114 ng/mL
Cmax [15]: 113 ng/mL
Activity [16]: inactive
Activity [17]: 66.3%
Activity [18]: inactive
Activity [19]: inactive
Activity [20]: inactive
Activity [21]: inactive
Activity (Mus musculus [22]): inactive
AUC(0-t) [23]: 364 ng·h/mL
Activity [24]: 54%
Activity (L6 [25]): 59.5%
Tmax [26]: 0.5 h
Activity [27]: 76.2%
half-life [28]: 10.8 h
inhibition (L6 [29]): Dose-dependent effect
MRT [30]: 5.1 h
Activity (Hepatocyte [31]): 14.9%
Activity (L6 [32]): Dose-dependent effect
MRT [33]: 5.5 h
half-life [34]: 7.2 h
Activity [35]: inactive
Activity (L6 [36]): 54%
Activity [37]: inactive
Activity [38]: 41.7%
inhibition (L6 [39]): Dose-dependent effect
AUC [40]: 432 ng·h/mL
MRT [41]: 5.8 h
clearance (Rattus norvegicus): 76.7 mL/min/kg
IC50 [42]: 10.5 µM
Activity (L6 [43]): 47.5%
Activity [44]: inactive
AUC [45]: 889 ng·h/mL
Activity (Hepatocyte [46]): 16.3%
